Reference: a melting point compilation (Tetko et al.; mined from patent text by program, amines drawn as free bases though some values may be those of a salt)

| SMILES | melting point [°C] |
| --- | --- |
| NC(=NCC(F)(F)F)Nc1ccnc(SCCCC(=O)O)n1 | 234 to 236 |
| Cc1ccc(Cl)cc1N1CN(Cc2ccccc2)CN(Cc2ccccc2)C1=S | 202 to 203 |
| O=C1CN(c2ccccc2)C(=O)N1CCBr | 146 to 147 |
| O=C1NCCc2ccc(OCCCCCl)cc2N1 | 177 to 179 |
| COP(=O)(Cc1ccc([N+](=O)[O-])c2ccccc12)OC | 128 to 129 |
| BrCCCCCCCCCCCCCCCCCCCCCCCCBr | 105 |
| c1n[nH]nc1C12CCCN(CC1)C2 (stereo not given) | 70 to 75 |
| CCCc1nc2c(C#N)ncc(C)c2[nH]1 | 239 to 242 |
| CCN(C)c1nc2sc3c(NCCCN4CCCC4=O)ncnc3c2c2c1CCC(C)(C)C2 | 166 to 167 |
| CS(=O)(=O)NC(=O)c1cccc(N)c1 | 153 to 155 |
| Oc1cccc([C@H]2CCCC[C@H]2NCCCCc2ccccc2)c1 (racemic) | 115 to 116 |
| COc1cccc(NC(=O)CC23CC4CC(CC(C4)C2)C3)c1C | 173 to 175 |
| O=C(/C=C/c1cccc(Cl)c1)NC1CC1 | 112 to 113 |
| CC(C)n1c(=O)n(CC2CO2)c2cc(-c3ncc(C(F)(F)F)cc3Cl)ccc21 (stereo not given) | 110 to 111 |
| CN1Cc2c(-c3nnc(CCl)o3)ncn2-c2ccccc2C1=O | 221 to 222 |
| CCCCN1CCSC1S(=O)(=O)N=NC(=O)Nc1nc(OC)cc(OC)n1 (stereo not given) | 139 to 140 |
| Cc1cccc(C)c1N(C(=O)CCl)C1=CCCCC1 | 78 |
| O=C(OCc1ccccc1)C(CC(=O)N1Cc2cscc2C1)Cc1ccccc1 (stereo not given) | 122 to 124 |
| Cc1cc(Cl)ccc1N=C1NCCN1 | 137 to 138 |
| CNC1CCN(c2ncc3ncnc(Nc4ccc(F)c(Cl)c4)c3n2)CC1 | 174 to 176 |
| CCCc1nc(N)nc(N)c1N1CCN(c2ccc(C(=O)N[C@@H](CCC(=O)O)C(=O)O)cc2)CC1 | 280 to 284 |

| SMILES | melting point [°C] |
| --- | --- |
| CCn1ncnc1COc1nn2c(-c3ccc(F)cc3F)nncc2c1C(C)(C)C | 145 |
| CCCCCCCNC(=O)Nc1ccccc1C(=O)NC1CCN(Cc2ccccc2)CC1 | 134 |
| Nc1c(Cl)ncnc1Nn1cccc1 | 130 to 132 |
| CSC(=N)c1cc(Oc2ccc(C(F)(F)F)cc2Cl)ccc1[N+](=O)[O-] | 103 |
| CCOC(=O)NC(C)C(=O)c1ccc(O)c(Cl)c1 (stereo not given) | 106 to 108 |
| CCCN(CCC)CCCC1CCN(CCNC(=O)N2c3ccccc3NC(=O)c3csc(C)c32)CC1 | 114 to 115 |
| CC1Cc2c(N3C(=O)C4=C(CCCC4)C3=O)ccc(Cl)c2O1 (stereo not given) | 134 to 137 |
| CC(C)N(C[C@H](O)[C@H](Cc1ccccc1)NC(=O)c1ccccc1NC(=O)OCc1ccccn1)NC(=O)OC(C)(C)C | 155 to 157 |
| O=C(O)C(CF)=NOCC=Cc1ccccc1 | 81 to 83 |
| O=CC1=C(Cl)Nc2cc(Cl)c(F)cc2C1 | 260 |
| CCOC(=O)N1CCC(Nc2nc3cncnc3n2Cc2ccco2)CC1 | 172 |
| CCOC(=O)C1Cc2ccc(NC)cc2NC1=O (stereo not given) | 171 to 172 |
| Cc1ccccc1CCNC(=O)c1c(Cl)ccc2nc(N3CCC(C(=O)O)CC3)ccc12 | 237 to 241 |
| CNC(=C[N+](=O)[O-])NCCSCc1csc(CN2CCCCC2)c1 | 101 to 103 |
| COCCn1ccc2ccc(NC(=O)/C=C/c3ccc(C(C)(C)C)cc3)cc21 | 133 |
| O=C(Nc1ccc(C(F)(F)F)cc1)Nc1nc(OCC(F)(F)F)cc(OCC(F)(F)F)n1 | 167 to 168 |
| O=C(NCc1ccc(Cl)cc1)c1cnc2c(F)cc(C#CCCCO)cc2c1O | 208 to 209 |
| N#CCc1nn2c(C(F)(F)F)cc(-c3ccc(F)c(Cl)c3)nc2c1C#N | 185 |
| O=C1c2ccccc2C(=O)N1Cc1ccc(Cl)nc1 | 142 to 143 |
| Cc1ccc(CN2C(=NCCCn3ccnc3)c3cccc4cccc2c34)cc1 | 94 to 95 |
| CNCC1(O)c2ccccc2C=Cc2ccccc21 | 112 to 114 |

| SMILES | melting point [°C] |
| --- | --- |
| Cc1nn2cccnc2c1C#N | 179 to 181 |
| O=C(c1ccc(Cl)cc1)n1cc(Cc2cc(=O)n(C3CCCCC3)[nH]2)c2ccccc21 | 109 to 111 |
| O=C(O)[C@H](Cc1ccccc1)NC(=O)[C@@H]1CCCN1S(=O)(=O)c1ccc([N+](=O)[O-])cc1 | 70 to 80 |
| O=C(Nc1cc(Cl)c(O)c(Cl)c1)c1ccc(F)cc1O | 223 to 224 |
| CC(=O)OC1=C(c2ccccc2)C(=O)N(C(C)(C)c2ccccc2)C1 | 149 to 150 |
| CNC(=O)C(C)Oc1cc(-c2nn(C)c(C(F)(F)F)c2Cl)c(F)cc1Cl (stereo not given) | 134 to 136 |
| CCCCNS(=O)(=O)CCCCn1c(COCC)nc2c(N)nc3ccccc3c21 | 148 to 149 |
| Cc1ccc(S(=O)(=O)OCC(O)Cc2cccc(C(C)(C)C)c2O)cc1 (stereo not given) | 98 to 101 |
| COc1ccc(NN)cc1F | 46 to 50 |
| N#Cc1ccc(N2C(=O)NC3(CCS(=O)(=O)CC3)C2=O)cc1C(F)(F)F | 257 to 258 |
| COC(=O)c1cc(C)cc(CC#N)c1 | 56.2 to 57.8 |
| CCn1nc(C(F)(F)F)c(CS(=O)(=O)C2=NOC(C)(CCl)C2)c1C#N (stereo not given) | 76 to 78 |
| C[C@H]1C(=O)Nc2ccc(Cl)cc2N1C(=O)OCCBr | 133 to 136 |
| O=Cc1ccccc1NC1CCN(Cc2ccccc2)CC1 | 87 to 90 |
| CCOC(=O)c1ccc(-c2ncc(Cl)nc2Cl)cc1 | 88.5 to 90 |
| CCCN=CNc1cccc(O)n1 | 178 to 179 |
| COCCn1ccc2cc(NC(=O)/C=C/c3ccc(C(C)(C)C)cc3)ccc21 | 138 |
| CCOc1ccc2c(=S)cc[nH]c2c1 | 171 to 174 |
| CC(C)C(=N)Nc1ccccc1N1CCOCC1 | 138 |
| COC1=C(OC)C(=O)C2=C(CC(CCCCCCCCO)C2)C1=O | 56 to 58 |

More lines, now with the values ahead:

| melting point [°C] | SMILES |
| --- | --- |
| 147 to 148 | COC(=O)CCCc1cc2nc(Cl)ccc2n1S(=O)(=O)c1cccc(-c2cncs2)c1 |
| 92 to 93 | c1cc(OCc2ccc3ccccc3n2)cc(C2SCCCS2)c1 |
| 220 to 226 | NC1=NC(c2cccc(-c3cccnc3F)c2)C2=NC(c3ccc(OC(F)F)cc3)C3(CCC3)CN12 (stereo not given) |
| 220 | COc1cccc(C2=C(C#N)C(c3cccc4nsnc34)c3c[nH]nc3N2)c1 (stereo not given) |
| 254 to 256 | COc1ccnc(CSc2nc3cc(Cl)c(Cl)cc3[nH]2)c1C |
| 156 | Cc1nccc2c3ccc(OCc4ccccc4)cc3n(Cc3ccccc3)c12 |
| 140 to 143 | CS(=O)(=O)CCNC(=O)c1cccc(-c2ccc3c(c2)C(Oc2ccc(Cl)cc2Cl)CC3)c1 (stereo not given) |
| 128 to 132 | O=S1(=O)N=C2CCCN2c2ccc(Oc3cccc(-c4ccoc4)c3)cc21 |
| 143 to 144 | COc1cc(C2=NC(C)(C)C(c3ccncc3)C2)cc(OC)c1OC (stereo not given) |
| 115 to 119 | CCOC(=O)N1CCC2(CC1)OC(c1ccccc1)c1ccccc12 (stereo not given) |
| 99 to 100 | CCOC(=O)c1cnc2c(C)csc2c1NCc1ccccc1 |
| 221 to 222 | Cc1noc2cc3c(cc12)C1(CO3)C(=O)N(Cc2ncccc2C(F)(F)F)c2ccccc21 (stereo not given) |
| 218 to 219 | CC(C)Cn1c(CNC(=O)OC(C)(C)C)c(-c2ccccc2)c2cc(O)ccc2c1=O |
| 162 | Cc1cccc(Oc2c(-c3ccc(S(C)(=O)=O)cc3)oc(C)cc2=O)c1 |
| 93.5 to 100 | COc1ccc(NC(=O)Nc2nc3nc(NCCCN4CCN(C)CC4)ncc3cc2-c2c(Cl)cccc2Cl)cc1 |
| 116 | CCCCc1nn2ccccc2c1C(=O)c1ccc(C#N)cc1 |
| 226 | O=C(Nc1ccc(-c2ccccc2)cc1C(=O)O)OCc1cc2cc(-c3ccccc3)ccc2o1 |
| 204 | CC(Oc1ccc(N(C)c2cnc3cc(Cl)ccc3n2)cc1)C(=O)O (stereo not given) |
| 228 to 231 | COc1ccc2c(=O)n(S(=O)(=O)c3ccc(C)cc3)c(=O)[nH]c2c1 |

| melting point [°C] | SMILES |
| --- | --- |
| 227 to 229 | C[C@H](c1ccccc1)n1c(O)nc2c(Cl)nc3ccccc3c21 |
| 123 to 125 | COc1ccc(CCc2ccc(-n3c(C)nc4cnccc43)cc2)cc1OC1CCCC1 |
| 108 to 109 | COC(=O)Cc1ccccc1OCc1cc(OCc2nc(-c3ccccc3)sc2C)no1 |
| 88 | Cc1ccc(Cn2nc(CCl)cc2-c2ccc(Cl)c(Cl)c2)cc1Cl |
| 133 to 134 | COc1cc(NC(=O)NC(=O)c2c(F)cccc2F)ccc1OC(F)(F)C(F)(F)c1ccc(Cl)cc1 |
| 188 to 189 | C[Si](C)(C)c1ccc2cc(C(=O)Nc3ccc(N4CC(O)C4)nc3)n(Cc3cccc(F)c3)c2c1 |
| 145 | COC1(C)C(=O)C(c2ccccc2)=C1c1ccc(S(C)(=O)=O)cc1 (stereo not given) |
| 71 to 73 | CCOC(=O)Cc1nc(-c2ccc(Cl)cc2)sc1Sc1ccccc1 |
| 70 to 75 | COc1cccc(CNc2nccc(-c3cc(N4CCN(CCCN(C)C)CC4)c4cc(OC)ccc4c3)n2)c1 |
| 144 to 146 | O=C1CCC(c2ccccc2)=NN1c1cc(-c2ccnc(Nc3cccc(Cl)c3)n2)ccn1 |
| 127 to 128 | CCOC(=O)c1cc(-c2ccc(OC)cc2)nn(CC=Cc2ccc(Cl)cc2)c1=O |
| 94 to 97 | OC(COc1cccc2[nH]ccc12)CN1CCC(c2c[nH]c3cc(F)ccc23)CC1 (single isomer, unassigned; (+)) |
| 197 to 200 | COc1ccc(Nc2ncc3cc4ccccc4n3n2)cc1 |
| 251 | NC(CC1c2ccccc2Sc2ccccc21)(C(=O)O)c1ccc(C(=O)O)cc1 (stereo not given) |
| 102 to 104 | Cc1cc(Oc2cccc(C(F)(F)F)c2)nn1C(=O)Nc1ccc(F)c(F)c1F |
| 196 to 197 | O=c1nccc2sc3cc(-c4ccccc4)ccc3n12 |
| > 280 | NC(=O)Nc1cccc2c1C(=O)c1c-2n[nH]c1-c1ccsc1 |
| 167 to 169 | CCCC(=O)c1cnc2c(OC)cccc2c1Nc1ccc(OC(C)=O)cc1C |
| > 300 | COc1ccc(Cl)cc1-c1c(N)c(=O)[nH]c2cc(Cl)c(Cl)cc12 |
